Data reported in patent US20240376126A1, “PRMT5 INHIBITOR AND THE USE THEREOF” (CYTOSINLAB THERAPEUTICS CO., LTD., priority 2022, published 2024).
Like-named read-outs stand apart in the source and are kept apart here.

Experiments:
HCT116 MTAP WT cells = assay: Proliferation inhibition of HCT116 cells in vitro (CellTiter Glo, 6 days); type: cell-based; conditions: Homo sapiens, HCT-116, 144 h, read-out: Cell proliferation inhibition rate HCT116 MTAP WT IC50 (nm)
Excerpt: (§1) Biological Test Example 2 Proliferation Inhibition of HCT116 and HCT116 MTAP-KO Cells In Vitro
(§2) HCT116 cell line was purchased from the Chinese Academy of Sciences Cell Bank, and the MTAP gene was knocked out by CRISPR/Cas9 technology to obtain HCT116-MTAP-KO cell line.
(§3) McCoy's 5A medium (Gibco, catalog No. 16600082), fetal bovine serum (Gibco, catalog No. 10099141C), penicillin-streptomycin double antibody (Gibco, catalog No. 15140122), pancreatic enzyme (Gibco, catalog No. 25200056), CellTiter Glo assay kit (Promega, catalog No. G7572), 384-well transparent flat-bottomed black walled cell culture plate (Corning, catalog No. 3764), ultra micro sampler (Tecan, catalog No. D300e), Multimode reader (Biotek, catalog No. SynergyHTX)
(§4) • 1. Cell culture: HCT116 and HCT116-MTAP-KO cells were cultured in McCoy'5A medium+10% fetal bovine serum+1% penicillin-streptomycin double antibody; to ensure that they were always in the logarithmic growth phase and the cell viability greater than 95%. • 2. Compound concentration gradient preparation: The compound to be tested was added to a 384-well plate using an ultra micro sampler, starting from 30 μM (HCT116 cells) or 3 μM (HCT116-MTAP-KO cells), and diluted with DMSO at 3 times for a total of 9 concentrations and set up three duplicate wells. • 3. Treatment of cells with compounds: Trypsin-digested HCT116 or HCT116-MTAP-KO cell suspension was added to the 384-well plates spotted with the compounds to be tested at 40 μL per well, i.e., 100 cells per well, and the final concentration of DMSO was 0.4%. The cell culture plate was incubated at 37° C. in a 5% CO2 incubator for 6 days. • 4. Detection: 20 μL of CellTiter Glo reagent was added to each well of the cell culture plate and incubated at room temperature for 30 minutes. A multimode reader was used to detect the luminescence signal at […]. • 5. Data analysis:
(§5) The data was fitted with GraphPad Prism 8.0 software using a four parameter inhibitor-reaction model to obtain the […] (half inhibitory concentration) of the test compounds.
(§6) The first column represents cell proliferation inhibition rate HCT116 MTAP WT IC50 (nm), and the second column represents cell proliferation inhibition rate HCT116-MTAP null IC50 (nm): […]

[1] = test system: HCT116-MTAP-KO (MTAP null) cells; assay: Proliferation inhibition of HCT116 MTAP-KO cells in vitro (CellTiter Glo, 6 days); type: cell-based; conditions: read-out: Cell proliferation inhibition rate HCT116-MTAP null IC50 (nm)
Excerpt: as §1, §2, §3, §4, §5, §6

Row | IC50 (HCT116 MTAP WT cells) [nM] | IC50 ([1]; HCT116-MTAP null, 144 h) [nM] | IC50 [1] [nM] | SMILES
1 | 1000 to 10000 | < 100 | – | CC(C)CN(Cc1cn2cc(C(F)(F)F)ccc2n1)C(=O)c1ccc2nc(N)c3c(c2c1)COC3 [Example 3, 4-Amino-N-isobutyl-N—((6-(trifluoromethyl)imidazolo [1,2-a]pyridin-2-yl)methyl)-1,3-dihydrofurano [3,4-c] quinolin-8-carboxamide]
2 | 1000 to 10000 | < 100 | – | CC1OCc2c1c(N)nc1ccc(C(=O)N(Cc3cn4ccccc4n3)C(C)c3ncccn3)cc21 (stereo not drawn) [Example 5]
3 | 1000 to 10000 | < 100 | – | CCN(Cc1cn2ccccc2n1)C(=O)c1ccc2nc(N)c3c(c2c1)COC3 [Example 6]
4 | 1000 to 10000 | < 100 | – | CCN(Cc1cn2ccccc2n1)C(=O)c1ccc2nc(N)c3c(c2c1)COC3C (stereo not drawn) [Example 7]
5 | 1000 to 10000 | < 100 | – | Cc1cc2cc(C(=O)N(Cc3cn4ccccc4n3)C(C)c3ncccn3)ccc2nc1N (stereo not drawn) [Example 8]
6 | 1000 to 10000 | 100 to 1000 | – | Cn1ncc2c(N)nc3cc(F)c(C(=O)N(Cc4cn5ccccc5n4)C4COC4)cc3c21 [Example 9]
7 | 1000 to 10000 | < 100 | – | CCN(C(=O)c1cc2c(cc1F)nc(N)c1cnn(C)c12)C(C)c1cn2ccccc2n1 (stereo not drawn) [Example 10]
8 | 1000 to 10000 | < 100 | – | COCCN(Cc1cn2ccccc2n1)C(=O)c1cc2c(cc1F)nc(N)c1cnn(C)c12 [Example 11]
9 | 100 to 1000 | < 100 | – | Cn1ncc2c(N)nc3cc(F)c(C(=O)N(Cc4cn5ccccc5n4)C45CC(C4)C5)cc3c21 [Example 12]
10 | 1000 to 10000 | < 100 | – | Cn1cc(N(Cc2cn3ccccc3n2)C(=O)c2cc3c(cc2F)nc(N)c2cnn(C)c23)cn1 [Example 14]
11 | 1000 to 10000 | 100 to 1000 | – | CCN(C(=O)c1ccc2nc(N)c3c(cnn3C)c2c1)C(C)c1cn2ccccc2n1 (stereo not drawn) [Example 15]
12 | 1000 to 10000 | 100 to 1000 | – | Cn1cc(N(Cc2cn3cc(C(F)(F)F)ccc3n2)C(=O)c2ccc3nc(N)c4cnn(C)c4c3c2)cn1 [Example 16]
13 | 1000 to 10000 | < 100 | – | CCN(Cc1cn2ccccc2n1)C(=O)c1ccc2nc(N)c3cnn(C)c3c2c1 [Example 18]
14 | 100 to 1000 | < 100 | – | CC1COCC(c2cn3ccccc3n2)N1C(=O)c1cc2c(cc1F)nc(N)c1cnn(C)c12 (stereo not drawn) [Example 19]
15 | 100 to 1000 | < 100 | – | CC(C)CN(Cc1cn2cc(C#N)ccc2n1)C(=O)c1cc2c(cc1F)nc(N)c1cnn(C)c12 [Example 20]
16 | 1000 to 10000 | 100 to 1000 | – | Cn1ncc2c(N)nc3cc(F)c(C(=O)N(Cc4cn5ccccc5n4)C4CCOC4)cc3c21 (stereo not drawn) [Example 22]
17 | 1000 to 10000 | < 100 | – | Cn1ncc2c(N)nc3cc(F)c(C(=O)N(Cc4cn5ccccc5n4)C4CCCC4O)cc3c21 (stereo not drawn) [Example 23]
18 | 1000 to 10000 | < 100 | – | Cn1ncc2c(N)nc3cc(F)c(C(=O)N(Cc4cn5ccccc5n4)C4CCCCC4O)cc3c21 (stereo not drawn) [Example 24]
19 | 1000 to 10000 | 100 to 1000 | – | CC1COCC(c2cn3ccccc3n2)N1C(=O)c1ccc2nc(N)c3c(cnn3C)c2c1 (stereo not drawn) [Example 25]
20 | 1000 to 10000 | < 100 | – | Cn1ncc2c(N)nc3cc(F)c(C(=O)N(Cc4cn5ccccc5n4)CC(F)F)cc3c21 [Example 26]
21 | 1000 to 10000 | < 100 | – | Cn1ncc2c(N)nc3cc(F)c(C(=O)N(Cc4cn5ccccc5n4)CC(C)(F)F)cc3c21 [Example 27]
22 | 1000 to 10000 | < 100 | – | CC(N(Cc1cn2ccccc2n1)C(=O)c1cc2c(cc1F)nc(N)c1cnn(C)c12)C(F)(F)F (stereo not drawn) [Example 28]
23 | 1000 to 10000 | 100 to 1000 | – | CCN(Cc1cn2ccccc2n1)C(=O)c1ccc2nc(N)c3c(cnn3C)c2c1 [Example 29]
24 | 1000 to 10000 | < 100 | – | CCN(Cc1nc2ccccn2c1C)C(=O)c1cc2c(cc1F)nc(N)c1cnn(C)c12 [Example 30]
25 | 1000 to 10000 | < 100 | – | CC(c1cn2ccccc2n1)N(C(=O)c1cc2c(cc1F)nc(N)c1cnn(C)c12)C12CC(C1)C2 (stereo not drawn) [Example 31]

Row | IC50 (HCT116 MTAP WT cells) [nM] | IC50 ([1]; HCT116-MTAP null, 144 h) [nM] | IC50 [1] [nM] | SMILES
26 | 1000 to 10000 | < 100 | – | Cc1cc2cc(C(=O)N(Cc3cn4ccccc4n3)C(C)c3cccc(F)n3)ccc2nc1N (stereo not drawn) [Example 32]
27 | 1000 to 10000 | 100 to 1000 | – | CCN(C(=O)c1ccc2nc(N)c3c(c2c1)COC3C)C(C)c1cn2ccccc2n1 (stereo not drawn) [Example 33]
28 | < 100 | < 100 | – | CC(C)CN(Cc1cn2cc(C(F)(F)C(F)(F)F)ccc2n1)C(=O)c1cc2c(cc1F)nc(N)c1cnn(C)c12 [Example 34]
29 | 1000 to 10000 | < 100 | – | COCCOc1ccc2nc(CN(CC(C)C)C(=O)c3cc4c(cc3F)nc(N)c3cnn(C)c34)cn2c1 [Example 35]
30 | 100 to 1000 | < 100 | – | CC(C)CN(Cc1cn2cc(C(F)(F)F)ccc2n1)C(=O)c1cc2c(cc1F)nc(N)c1cnn(C)c12 [Example 36]
31 | 1000 to 10000 | < 100 | – | [2H]C([2H])([2H])N(Cc1cn2ccccc2n1)C(=O)c1cc2c(cc1F)nc(N)c1cnn(C)c12 [Example 37]
32 | 1000 to 10000 | < 100 | – | Cc1cc2cc(C(=O)N(Cc3cn4ccccc4n3)C(C)c3ncccn3)c(F)cc2nc1N (stereo not drawn) [Example 38]
33 | 1000 to 10000 | < 100 | – | Cc1cc2cc(C(=O)N(Cc3cn4cc(C(F)(F)F)ccc4n3)C(C)c3ncccn3)c(F)cc2nc1N (stereo not drawn) [Example 39]
34 | 1000 to 10000 | < 100 | – | CCN(C(=O)c1cc2cc(C)c(N)nc2cc1F)C(C)c1cn2ccccc2n1 (stereo not drawn) [Example 40]
35 | 1000 to 10000 | < 100 | – | COCCN(Cc1cn2cc(C(F)(F)F)ccc2n1)C(=O)c1ccc2nc(N)c3c(c2c1)COC3C (stereo not drawn) [Example 41]
36 | 1000 to 10000 | < 100 | – | CC1OCc2c1c(N)nc1ccc(C(=O)N(Cc3cn4cc(C(F)(F)F)ccc4n3)c3cnn(C)c3)cc21 (stereo not drawn) [Example 42, 4-Amino-3-methyl-N-(1-methyl-1H-pyrazol-4-yl)-N-((6-(trifluoromethyl)imidazolo[1,2-a]pyridin-2-yl)methyl)-1,3-dihydrofurano[3,4-c]quinolin-8-carboxamide]
37 | 1000 to 10000 | < 100 | – | CC1OCc2c1c(N)nc1ccc(C(=O)N(Cc3cn4cc(C(F)(F)F)ccc4n3)C34CC(C3)C4)cc21 (stereo not drawn) [Example 43]
38 | 1000 to 10000 | < 100 | – | COCC(C)N(Cc1cn2cc(C(F)(F)F)ccc2n1)C(=O)c1ccc2nc(N)c3c(c2c1)COC3C (stereo not drawn) [Example 44]
39 | 1000 to 10000 | < 100 | – | COC1CC(N(Cc2cn3ccccc3n2)C(=O)c2cc3c(cc2F)nc(N)c2cnn(C)c23)C1 (stereo not drawn) [Example 45]
40 | 1000 to 10000 | < 100 | – | CCN(Cc1cn2ccccc2n1)C(=O)c1ccc2nc(N)c3c(c2c1)CO[C@H]3C [Example 47]
41 | 1000 to 10000 | 1000 to 10000 | – | C[C@H]1OCc2c1c(N)nc1ccc(C(=O)N(Cc3cn4cc(C(F)(F)F)ccc4n3)c3cnn(C)c3)cc21 [Example 48]
42 | 1000 to 10000 | < 100 | – | C[C@@H]1OCc2c1c(N)nc1ccc(C(=O)N(Cc3cn4cc(C(F)(F)F)ccc4n3)c3cnn(C)c3)cc21 [Example 49]
43 | 1000 to 10000 | 100 to 1000 | < 100 | [2H]C([2H])([2H])N(Cc1cn2cc(C(F)(F)F)ccc2n1)C(=O)c1ccc2nc(N)c3c(c2c1)COC3C (stereo not drawn) [Example 50]
44 | 1000 to 10000 | 100 to 1000 | – | CCN(Cc1cn2cc(C(F)(F)F)ccc2n1)C(=O)c1ccc2nc(N)c3c(c2c1)COC3C (stereo not drawn) [Example 51]
45 | 1000 to 10000 | < 100 | – | CC(C)CN(Cc1cn2cc(C(F)(F)F)ccc2n1)C(=O)c1ccc2nc(N)c3c(c2c1)COC3C (stereo not drawn) [Example 52]
46 | 1000 to 10000 | < 100 | – | CC(C)CN(Cc1cn2ccccc2n1)C(=O)c1ccc2nc(N)c3c(c2c1)COC3C (stereo not drawn) [Example 53]
47 | 1000 to 10000 | 100 to 1000 | – | CC(C)CN(Cc1cn2ccccc2n1)C(=O)c1ccc2nc(N)c3c(c2c1)CO[C@@H]3C [Example 54]
48 | 1000 to 10000 | < 100 | – | CC(C)CN(Cc1cn2ccccc2n1)C(=O)c1ccc2nc(N)c3c(c2c1)CO[C@H]3C [Example 55]
49 | – | 100 to 1000 | – | Cc1nn(C)cc1N(Cc1cn2cc(C(F)(F)F)ccc2n1)C(=O)c1cc2c(cc1F)nc(N)c1cnn(C)c12 [Example 238]
50 | – | < 100 | – | Cn1nccc1N(Cc1cn2cc(C(F)(F)F)ccc2n1)C(=O)c1cc2c(cc1F)nc(N)c1cnn(C)c12 [Example 240]
